How the values were obtained:
blackgrass = assay: Test E blackgrass; assay type: in vivo, Alopecurus myosuroides; conditions: Preemergence
winter wheat [1] = assay: Test E winter wheat; assay type: in vivo, Triticum aestivum; conditions: Postemergence
In short: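 For postemergence, sowings are timed so plants reach the 1- to 4-leaf stage at spraying. Test compound is applied in a surfactant-containing solvent mixture that is non-phytotoxic. Response is judged by eye against untreated controls after approximately 21 to 28 days.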

bermuda-grass = assay: Test D bermudagrass; assay type: in vivo, Cynodon dactylon; conditions: Preemergence, 0 to 100 scale
In short: (§1)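 Greenhouse pots, sandy loam, single species per pot. Preemergence tests: soil-surface application ≤1 day after planting. Compound formulated in non-phytotoxic solvent with surfactant. Visual rating 14–21 DAT, scale 0–100.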

green foxtail [2] = assay: Test E green foxtail; assay type: in vivo, Setaria viridis; conditions: Preemergence
Green foxtail [3] = assay: Test D green foxtail; assay type: in vivo
In short: as §1

pigweed = assay: Test B pre/postemergence pigweed; assay type: in vivo, Amaranthus retroflexus
In short: (§2)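 Response is a visual 0-to-10 score relative to untreated plants, where 0 means no effect and 10 means complete control, taken twelve to sixteen days after application. Treatments went onto soil at planting and onto foliage of 1- to 4-leaf plants, using a surfactant-containing non-phytotoxic solvent.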

sugar beet = assay: Test B pre/postemergence sugar beet; assay type: in vivo, Beta vulgaris; conditions: for Plant response rating, Sugarbeets: Rate 250 g/ha
In short: as §2

winter barley = assay: Test E winter barley; assay type: in vivo, Hordeum vulgare; conditions: Preemergence
pitted morningglory = assay: Test D pitted morningglory; assay type: in vivo, Ipomoea lacunosa; conditions: Preemergence, 0 to 100 scale
In short: as §1

Italian ryegrass = assay: Test E Italian ryegrass; assay type: in vivo, Lolium multiflorum; conditions: Preemergence
winter wheat [4] = assay: Test E winter wheat; assay type: in vivo, Triticum aestivum; conditions: Preemergence
itchgrass = assay: Test D itchgrass; assay type: in vivo, Rottboellia exaltata; conditions: Preemergence, 0 to 100 scale
In short: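 Scoring used a 0–100 visual injury scale, with 0 meaning no effect and 100 complete control, assessed 14–21 days after application alongside untreated pots. Preemergence treatments went onto sandy loam surfaces of separately potted seeds within a day of sowing.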

wild oat = assay: Test E wild oat; assay type: in vivo, Avena fatua; conditions: Preemergence
Spanishneedles = assay: Test D Spanishneedles; assay type: in vivo, Bidens bipinnata; conditions: Preemergence, 0 to 100 scale, 0 no injury, 100 complete control
In short: as §1

rape = assay: Test B pre/postemergence rape; assay type: in vivo, Brassica napus
In short: as §2

[5] = Rate 62 g/ha, 0 to 100 scale, 0 no effect, 100 complete control
[6] = Rate 125 g/ha, 0 to 100 scale (0 no effect, 100 complete control)
[7] = Rate 16 g/ha, 0 no injury, 100 complete control
[8] = Rate 32 g/ha, 0 no injury, 100 complete control
[9] = Rate 64 g/ha, 0 no injury, 100 complete control
[10] = Rate 125 g/ha, 0 no injury, 100 complete control
[11] = Rate 64 g/ha, Preemergence; 0 to 100 scale, 0 no injury, 100 complete control
[12] = Rate 125 g/ha, Preemergence; 0 to 100 scale, 0 no injury, 100 complete control
[13] = Postemergence, Rate 125 g/ha, scale of 0 to 10 where 0 is no effect and 10 is complete control
[14] = Preemergence, Rate 62 g/ha, scale 0 to 10 (0 no effect, 10 complete control)
[15] = Preemergence, Rate 125 g/ha, scale 0 to 10 (0 no effect, 10 complete control)
[16] = Preemergence, Rate 250 g/ha, scale of 0 to 10 where 0 is no effect and 10 is complete control
[17] = Preemergence, Rate 500 g/ha, scale 0 to 10 (0 no effect, 10 complete control)
[18] = Rate 62 g/ha, Postemergence, scale of 0 to 10 where 0 is no effect and 10 is complete control
[19] = Rate 500 g/ha, Postemergence, scale 0 to 10, 0 no effect, 10 complete control

SMILES: CCCn1c(=O)on(C(=O)N(c2ccc(Cl)cc2)C(C)C)c1=O [Compound 119]
- Plant response rating, Blackgrass (blackgrass; [5]): 20
- Plant response rating, Blackgrass (blackgrass; [6]): 10
- Plant response rating, Blackgrass (blackgrass; Rate 250 g/ha, 0 to 100 scale): 50
- Plant response rating, Wheat (winter) (winter wheat [1]; Rate 62 g/ha, 0 to 100 scale): 10
- Plant response rating, Wheat (winter) (winter wheat [1]; Rate 125 g/ha, 0 to 100 scale): 10
- Plant response rating, Wheat (winter) (winter wheat [1]; Rate 250 g/ha, 0 to 100 scale (0 no effect, 100 complete control)): 20
- Plant response rating, Bermudagrass (bermuda-grass; [7]): 50
- Plant response rating, Bermudagrass (bermuda-grass; [8]): 65
- Plant response rating, Bermudagrass (bermuda-grass; [9]): 100
- Plant response rating, Bermudagrass (bermuda-grass; [10]): 100
- Plant response rating, Bermudagrass (bermuda-grass; Rate 250 g/ha): 100
- Plant response rating, Green foxtail (green foxtail [2]; [5]): 10
- Plant response rating, Green foxtail (green foxtail [2]; [6]): 50
- Plant response rating, Green foxtail (green foxtail [2]; Rate 250 g/ha, 0 to 100 scale): 60
- Plant response rating, Green foxtail (Green foxtail [3]; Preemergence; Rate 16 g/ha; 0 to 100 scale, 0 no injury, 100 complete control): 10
- Plant response rating, Green foxtail (Green foxtail [3]; Preemergence; Rate 32 g/ha; 0 to 100 scale, 0 no injury, 100 complete control): 75
- Plant response rating, Green foxtail (Green foxtail [3]; Rate 16 g/ha; Preemergence; 0 to 100 scale, 0 no injury, 100 complete control): 10
- Plant response rating, Green foxtail (Green foxtail [3]; Rate 32 g/ha; Preemergence; 0 to 100 scale, 0 no injury, 100 complete control): 100
- Green foxtail plant response rating (Green foxtail [3]; [11]): 90
- Plant response rating, Green foxtail (Green foxtail [3]; [11]): 90
- Green foxtail plant response rating (Green foxtail [3]; [12]): 100
- Plant response rating, Green foxtail (Green foxtail [3]; [12]): 100
- Plant response rating, Green foxtail (Green foxtail [3]; Rate 250 g/ha; Preemergence; 0 to 100 scale): 100
- Redroot pigweed plant response rating (pigweed; [13]): 0
- Redroot pigweed plant response rating (pigweed; [14]): 10
- Plant response rating, Redroot pigweed (pigweed; [15]): 10
- Plant response rating, Redroot pigweed (pigweed; [16]): 10
- Redroot pigweed plant response rating (pigweed; [17]): 10
- Redroot pigweed plant response rating (pigweed; [18]): 0
- Plant response rating, Redroot pigweed (pigweed; Rate 250 g/ha, Postemergence, scale 0 to 10, 0 is no effect, 10 is complete control): 2
- Redroot pigweed plant response rating (pigweed; [19]): 6
- Sugarbeets plant response rating (sugar beet; [13]): 0
- Sugarbeets plant response rating (sugar beet; [14]): 3
- Sugarbeets plant response rating (0 to 10 scale) (sugar beet; Preemergence, Rate 125 g/ha, 0 is no effect, 10 is complete control): 4
- Plant response rating, Sugarbeets (sugar beet; Preemergence, scale of 0 to 10 where 0 is no effect and 10 is complete control): 8
- Sugarbeets plant response rating (sugar beet; [17]): 8
- Sugarbeets plant response rating (sugar beet; [18]): 0
- Plant response rating, Sugarbeets (sugar beet; Postemergence, scale 0 to 10, 0 is no effect, 10 is complete control): 0
- Sugarbeets plant response rating (sugar beet; [19]): 4
- Plant response rating, Barley (winter) (winter barley; [5]): 5
- Plant response rating, Barley (winter) (winter barley; [6]): 10
- Plant response rating, Barley (winter) (winter barley; Rate 250 g/ha, 0 to 100 scale): 10
- Plant response rating, P. morninglory (pitted morningglory; [7]): 0
- Plant response rating, P. morninglory (pitted morningglory; [8]): 0
- Plant response rating, P. morninglory (pitted morningglory; [9]): 0
- Plant response rating, P. morninglory (pitted morningglory; [10]): 0
- Plant response rating, P. morninglory (pitted morningglory; Rate 250 g/ha): 0
- Plant response rating, I. Ryegrass (Italian ryegrass; [5]): 10
- Plant response rating, I. Ryegrass (Italian ryegrass; [6]): 35
- Plant response rating, I. Ryegrass (Italian ryegrass; Rate 250 g/ha, 0 to 100 scale): 60
- Plant response rating, Wheat (winter) (winter wheat [4]; [5]): 0
- Plant response rating, Wheat (winter) (winter wheat [4]; [6]): 20
- Plant response rating, Wheat (winter) (winter wheat [4]; Rate 250 g/ha, 0 to 100 scale): 30
- Plant response rating, Itchgrass (itchgrass; [7]): 0
- Plant response rating, Itchgrass (itchgrass; [8]): 10
- Plant response rating, Itchgrass (itchgrass; [9]): 50
- Plant response rating, Itchgrass (itchgrass; [10]): 60
- Plant response rating, Itchgrass (itchgrass; Rate 250 g/ha): 75
- Plant response rating, Wild oat (wild oat; [5]): 20
- Plant response rating, Wild oat (wild oat; [6]): 10
- Plant response rating, Spanishneedles (Spanishneedles; Rate 16 g/ha): 0
- Plant response rating, Spanishneedles (Spanishneedles; Rate 32 g/ha): 0
- Spanishneedles plant response rating (Spanishneedles; Rate 64 g/ha): 0
- Spanishneedles plant response rating (Spanishneedles; Rate 125 g/ha): 10
- Rape plant response rating (rape; [13]): 0
- Rape plant response rating (rape; Postemergence, Rate 250 g/ha, scale 0 to 10, 0 no effect, 10 complete control): 2
- Rape plant response rating (rape; [14]): 4
- Plant response rating, Rape (rape; [15]): 6
- Plant response rating, Rape (rape; [16]): 7
- Rape plant response rating (rape; [17]): 9
- Rape plant response rating (rape; [18]): 0
- Rape plant response rating (rape; [19]): 4
